Results reported in patent publication US4539322A, “Dihydropyridine derivatives and their use in treating heart conditions and hypertension” (Pfizer Inc., priority 1982, dated 1985).
Structures can show the parent of a compound that is named as a salt.

System: rat aorta
Experiment: Inhibition of calcium-induced contraction of isolated rat aorta strips (reduction of response to added calcium chloride in K+-containing saline)
Assay type: cell-based
Settings: 0.75 h; spirally cut rat aorta strips, 45 millimolar potassium, calcium 2 millimolar, test repeated with compound after 45 minutes; read-out: molar concentration of the compounds required to reduce the response by 50% (IC50)
Protocol: The ability of the compounds to inhibit the movement of calcium into the cell is shown by their effectiveness in reducing the response of isolated heart tissue to an increase in calcium ion concentration in vitro. The test is performed by mounting spirally cut strips of rat aorta with one end fixed and the other attached to a force transducer. The tissue is immersed in a bath of physiological saline solution containing potassium ion s at a concentration of 45 millimolar and no calcium. Calcium chloride is added to the bath with a pipette to give a final calcium ion concentration of 2 millimolar. The change in tension caused by the resulting contraction of the tissue is noted. The bath is drained and replaced with fresh saline solution and, after 45 minutes, the test is repeated with the particular compound under test present in the saline solution. The concentration of compound required to reduce the response by 50% is recorded.

SMILES	IC50 [nM]
CCOC(=O)C1=C(COCCN2CCN(C(=O)[C@@H]3CCC(=O)N3)CC2)NC(C)=C(C(=O)OC)C1c1ccccc1Cl (stereo partly drawn) [Example 54, 4-(2-chlorophenyl)-3-ethoxycarbonyl-5-methoxycarbonyl-6-methyl-2-[2-(4-[l-5-oxo-pyrrolidin-2-ylcarbonyl]-piperazin-1-yl)ethoxymethyl]-1,4-dihydropyridine, hydrochloride hydrate]	3.02
CCOC(=O)C1=C(COCCN2CCNCC2)NC(C)=C(C(=O)OC)C1c1ccccc1Cl (centres unmarked) [Example 55, 4-(2-chlorophenyl)-3-ethoxycarbonyl-5-methoxycarbonyl-6-methyl-2-[2-(piperazin-1-yl)ethoxymethyl]-1,4-dihydropyridine]	155
CCOC(=O)C1=C(COCC(C)(C)N2CCNCC2)NC(C)=C(C(=O)OC)C1c1ccccc1Cl (centres unmarked) [Example 56]	340
CCOC(=O)C1=C(COCC(C)N2CCNCC2)NC(C)=C(C(=O)OC)C1c1ccccc1Cl (centres unmarked) [Example 57]	224
CCOC(=O)C1=C(COCCN2CCN(C(=N)NC(=O)NC(C)C)CC2)NC(C)=C(C(=O)OC)C1c1ccccc1Cl (centres unmarked) [Example 64]	14
CCOC(=O)C1=C(COCCN2CCN(C(=N)NC(=O)OC)CC2)NC(C)=C(C(=O)OC)C1c1ccccc1Cl (centres unmarked) [Example 65]	8.1
CCOC(=O)C1=C(COCCN2CCN(C(=NC(C)=O)NC(C)=O)CC2)NC(C)=C(C(=O)OC)C1c1ccccc1Cl (centres unmarked) [Example 66]	42
CCOC(=O)C1=C(COCCN2CCN(C(=O)NC)CC2)NC(C)=C(C(=O)OC)C1c1cccc2ccccc12 (centres unmarked) [Example 70B, 3-Ethoxycarbonyl-5-methoxycarbonyl-6-methyl-2-{2-[4-(N-methylcarbamoyl)piperazin-1-yl]ethoxymethyl}4-(1-naphthyl)-1,4-dihydropyridine hydrate]	89
